Results on 26 compounds are retold here after patent publication US11999727B2 (Tango Therapeutics, Inc., priority 2020, dated 2024).

Where two headings read alike, the source gives them in different places.

For assay [1], the system named is HAP1 MTAP-intact cell line. The experiment in a line: SDMA in-cell western assay, HAP1 MTAP-intact. Format: cell-based. To be noted: Homo sapiens. The source says: (§1) Table 1 also indicates IC50 values in an MTAP-isogenic cell line pair for exemplary compounds in an SDMA in-cell western assay (columns 7-8). HAP1 MTAP-intact is a cell line in which endogenous levels of MTAP are expressed, and HAP1 MTAP-deleted is an MTAP-null cell line.

Assay [2] deals with HAP1 MTAP-deleted cell line. Briefly: SDMA in-cell western assay, HAP1 MTAP-deleted. Format: cell-based. To be noted: for IC50: Homo sapiens; for MTAP intact/deleted ratio: IC50 ratio HAP1 MTAP-intact / HAP1 MTAP-deleted, SDMA in-cell western.
Text: as §1

Assay [3] deals with HAP1 MTAP-deleted cell line. Briefly: Viability assay, MTAP-deleted cell line. The conditions noted are these: Homo sapiens. Format: cell-based. The source says:
Table 1 additionally indicates IC50 values in a viability assay for the MTAP-deleted cell line (column 10), indicating the effect of treatment with compound on cell survival.

Assay [4] addresses T1, PRMT5 (Homo sapiens, UniProt O14744).
T1 construct: purchased Viva (custom protein)
Briefly: PRMT5 biochemical IC50 assay with MTA as cofactor. The conditions noted are these: PRMT5, MTA as cofactor; read-out: MTA IC50.

For assay [5], the target named is T1, PRMT5. The experiment in a line: PRMT5 biochemical IC50 assay with SAM as cofactor. To be noted: PRMT5, SAM as cofactor; read-out: SAM IC50.
In assay [6] the target is T1, PRMT5. The experiment in a line: PRMT5 biochemical IC50 assay with no cofactor. The conditions noted are these: PRMT5, no cofactor; read-out: No Cofactor/rel IC50. The text has this: Table 1 indicates IC50 values (μM) against PRMT5 for exemplary compounds in the presence of SAM as cofactor, with no cofactor, and with MTA as cofactor, respectively (columns 4-6). […] Ki values can be calculated from the IC50 values as described in the Examples section. As detailed in the Examples section, for the assay performed in the presence of SAM, IC50=Ki×1.5 (Ki=IC50/1.5).

Where [7] appears, read: HAP1, read-out: MTAP HAP1 intact IC50.
Where [8] appears, read: HAP1, read-out: HAP1 MTAP deleted IC50.
Setting [9] is: HAP1, read-out: HAP1 MTAP deleted viability.
Where [10] appears, read: HAP1, SDMA in-cell western, HAP1 MTAP-intact, read-out: MTAP HAP1 intact IC50.
[11] abbreviates: HAP1, SDMA in-cell western, HAP1 MTAP-deleted, read-out: HAP 1 MTAP deleted IC50.
Where [12] appears, read: HAP1, viability IC50, MTAP-deleted cell line, read-out: HAP1 MTAP deleted viability.
Setting [13] is: HAP1, viability assay, MTAP-deleted cell line, read-out: HAP1 MTAP deleted viability.

T1 sequence (O14744 whole entry): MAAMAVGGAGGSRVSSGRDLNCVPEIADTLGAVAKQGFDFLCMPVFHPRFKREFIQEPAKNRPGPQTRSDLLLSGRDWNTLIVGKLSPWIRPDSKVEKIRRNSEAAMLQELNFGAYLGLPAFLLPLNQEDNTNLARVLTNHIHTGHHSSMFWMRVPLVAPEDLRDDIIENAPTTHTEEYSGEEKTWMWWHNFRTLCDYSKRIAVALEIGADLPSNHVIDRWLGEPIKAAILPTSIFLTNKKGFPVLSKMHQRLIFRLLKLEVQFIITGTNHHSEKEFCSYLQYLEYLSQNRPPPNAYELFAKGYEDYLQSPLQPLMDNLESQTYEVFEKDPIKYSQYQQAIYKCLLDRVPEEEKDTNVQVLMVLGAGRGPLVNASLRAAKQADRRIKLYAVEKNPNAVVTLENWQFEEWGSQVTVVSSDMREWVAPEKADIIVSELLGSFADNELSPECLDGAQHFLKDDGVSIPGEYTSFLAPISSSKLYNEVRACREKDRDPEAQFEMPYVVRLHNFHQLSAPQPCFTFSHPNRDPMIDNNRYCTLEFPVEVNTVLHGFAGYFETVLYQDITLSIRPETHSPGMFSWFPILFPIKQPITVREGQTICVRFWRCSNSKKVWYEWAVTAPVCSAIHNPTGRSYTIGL
T1 sequence (Q9BQA1 whole entry partner): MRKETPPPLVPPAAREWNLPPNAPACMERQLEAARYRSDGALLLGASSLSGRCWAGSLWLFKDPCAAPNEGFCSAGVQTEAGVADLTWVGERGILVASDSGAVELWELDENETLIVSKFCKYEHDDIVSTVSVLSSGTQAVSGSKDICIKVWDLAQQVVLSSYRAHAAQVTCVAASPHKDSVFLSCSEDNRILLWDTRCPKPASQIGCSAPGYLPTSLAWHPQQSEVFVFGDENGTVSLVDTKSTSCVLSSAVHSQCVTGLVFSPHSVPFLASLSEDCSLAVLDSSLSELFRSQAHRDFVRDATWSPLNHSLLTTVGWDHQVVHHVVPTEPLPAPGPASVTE

Regarding `CCc1cc(NC(=O)C(=O)N2C[C@@H](C)CC[C@@H]2c2ccc3scnc3c2)cnc1N` (stereo in doubt) [Compound 701, N-(6-amino-5-ethyl-3-pyridyl)-2-[(2R,5S)-2-(1,3-benzothiazol-5-yl)-5-methyl-1-piperidyl]-2-oxo-acetamide], the figures for the IC50 in assay [1] (setting [7]), in assay [2] (setting [8]) and in assay [3] (setting [9]) were 0.1 to 1 µM, < 0.1 µM and < 1 µM, respectively.
For `C[C@@H]1CC[C@@H](c2ccc3c(c2)CCC(=O)N3)N(C(=O)C(=O)Nc2cncc(C(N)=O)c2)C1` (single isomer, unassigned) [Compound 480], in that order: > 1 µM, > 1 µM and > 10 µM.
Taken in the same sequence, the figures for `C[C@H]1CC[C@H](c2ccc3scnc3c2)N(C(=O)C(=O)Nc2cnc(N)c(C3COC3)c2)C1` [Compound 1356, N-[6-amino-5-(oxetan-3-yl)-3-pyridyl]-2-[(2R,5S)-2-(1,3-benzothiazol-5-yl)-5-methyl-1-piperidyl]-2-oxo-acetamide] were 0.1 to 1 µM, < 0.1 µM and < 1 µM.
For `Cc1cc(NC(=O)C(=O)N2C[C@@H](C)CC[C@@H]2c2ccc(F)cc2)cnc1N` (single isomer, unassigned) [Compound 242], in that order: 0.1 to 1 µM, < 0.1 µM and < 1 µM.
As for `CCc1cc(NC(=O)C(=O)N2C[C@H](C)CC[C@H]2c2ccc3scnc3c2)cnc1N` (stereo in doubt) [Compound 694, N-(6-amino-5-ethyl-3-pyridyl)-2-[(2S,5R)-2-(1,3-benzothiazol-5-yl)-5-methyl-1-piperidyl]-2-oxo-acetamide], the IC50 in assay [1] (setting [7]) is > 1 µM; in assay [2] (setting [8]), 0.1 to 1 µM; in assay [3] (setting [9]), 1 to 10 µM.
As to `COc1ncc(NC(=O)C(=O)N2C[C@@H](C)CC[C@@H]2c2ccc3sc(C4CCN(C)CC4)nc3c2)cc1C(N)=O` (single isomer, unassigned) [Compound 1126], the IC50 is < 0.1 µM in assay [1] (setting [7]), < 0.1 µM in assay [2] (setting [8]) and < 1 µM in assay [3] (setting [9]).
Consider `C[C@H]1CC[C@H](c2ccc3c(c2)CC(=O)N3)N(C(=O)C(=O)Nc2cncc(C(N)=O)c2)C1` (single isomer, unassigned) [Compound 319], for which the results for the IC50 in assay [1] (setting [7]), in assay [2] (setting [8]) and in assay [3] (setting [9]) were 0.1 to 1 µM, < 0.1 µM and 1 to 10 µM, respectively.
For `Cc1cc(NC(=O)C(=O)N2C[C@@H](C)CC[C@@H]2c2ccc3[nH]ccc3c2)cnc1N` (single isomer, unassigned) [Compound 388], in that order: > 1 µM, > 1 µM and > 10 µM.
Taken in the same sequence, the figures for `C[C@H]1CC[C@H](c2ccc3[nH]ncc3c2)N(C(=O)C(=O)Nc2cncc(C(N)=O)c2)C1` (single isomer, unassigned) [Compound 360] were > 1 µM, > 1 µM and > 10 µM.
As to `Cc1cc(NC(=O)C(=O)N2C[C@@H](C)CC[C@@H]2c2ccc3[nH]cnc3c2)cnc1N` (single isomer, unassigned) [Compound 408], the IC50 was 0.1 to 1 µM in assay [1] (setting [7]), < 0.1 µM in assay [2] (setting [8]) and < 1 µM in assay [3] (setting [9]).
Take `C[C@H]1CC[C@H](c2ccc(N)cn2)N(C(=O)C(=O)Nc2cncc(C(N)=O)c2)C1` (relative stereo) [Compound 594, 5-[[2-[(2R,5S)-2-(5-amino-2-pyridyl)-5-methyl-1-piperidyl]-2-oxo-acetyl]amino]pyridine-3-carboxamide]: the results for the IC50 in assay [1] (setting [10]), in assay [2] (setting [11]) and in assay [3] (setting [12]) were > 1 µM, > 1 µM and > 10 µM, respectively. In addition, in assay [2], the MTAP intact/deleted ratio result was “B (an IC50 ratio greater than or equal to 3 fold but lower than 10 fold)”.
Regarding `C[C@H]1CC[C@H](c2ccc3[nH]ccc3c2)N(C(=O)C(=O)Nc2cncc(C(N)=O)c2)C1` (single isomer, unassigned) [Compound 481], the IC50 in assay [1] (setting [7]) is 0.1 to 1 µM; in assay [2] (setting [8]), < 0.1 µM; in assay [3] (setting [9]) it was < 1 µM.
Taken in the same sequence, the figures for `Cc1cc(NC(=O)C(=O)N2C[C@@H](C)CC[C@@H]2c2ccc3cnccc3c2)cnc1N` (single isomer, unassigned) [Compound 1002] were > 1 µM, 0.1 to 1 µM and > 10 µM.
For `C[C@@H]1CC[C@@H](c2ccc(C(F)F)cc2)N(C(=O)C(=O)Nc2cncc(C(N)=O)c2)C1` (single isomer, unassigned) [Compound 358], in that order: > 1 µM, > 1 µM and > 10 µM.
Taken in the same sequence, the figures for `Cc1cc(NC(=O)C(=O)N2CCCCC2c2ccccc2)cnc1C` (stereo not drawn) [Compound 139, N-(5,6-dimethylpyridin-3-yl)-2-oxo-2-(2-phenylpiperidin-1-yl)acetamide] were > 1 µM, > 1 µM and > 10 µM.
Turning to `Cc1cc(NC(=O)C(=O)N2C[C@H](C)CC[C@H]2c2ccc(C(F)F)cc2)cnc1N` (single isomer, unassigned) [Compound 419], the IC50 in assay [1] (setting [7]) is 0.1 to 1 µM; in assay [2] (setting [8]), < 0.1 µM; in assay [3] (setting [9]), 1 to 10 µM.
`C[C@@H]1CC[C@H](c2ccccc2)N(C(=O)C(=O)Nc2cncc(C(N)=O)c2)C1` (single isomer, unassigned) [Compound 75]: the IC50 in assay [1] (setting [7]) and in assay [2] (setting [8]) was > 1 µM in each case.
For the compound `Cc1cc(NC(=O)C(=O)N2C[C@@H](C)CC[C@@H]2c2ccncc2)cnc1N` (single isomer, unassigned) [Compound 609], the IC50 in assay [4] was > 0.5 µM; in assay [2] (setting [11]), > 1 µM; in assay [3] (setting [12]) it was > 10 µM; in assay [5], > 0.5 µM; in assay [6], > 0.5 µM. Besides, the MTAP intact/deleted ratio entry in assay [2] is on record as “C (an IC50 ratio of less than 3 fold)”.
With `C[C@@H]1CC[C@@H](c2ccc3c(c2)CC(=O)N3)N(C(=O)C(=O)Nc2cncc(C(N)=O)c2)C1` (single isomer, unassigned) [Compound 325], the IC50 in assay [1] (setting [7]) and in assay [2] (setting [8]) was > 1 µM in each case.
In the case of `Cc1cncc(NC(=O)C(=O)N2CC(C)CCC2c2ccccc2)c1` (stereo not drawn) [Compound 1, 2-(5-methyl-2-phenylpiperidin-1-yl)-N-(5-methylpyridin-3-yl)-2-oxoacetamide], the IC50 in assay [1] (setting [7]) and in assay [2] (setting [8]) was > 1 µM in each case.
Take `Cc1cc(NC(=O)C(=O)N2C[C@H](C)CC[C@@H]2c2ccc(-c3ccn[nH]3)s2)cnc1N` (racemic) [Compound 577, N-(6-amino-5-methyl-3-pyridyl)-2-[(2R,5R)-5-methyl-2-[5-(1H-pyrazol-5-yl)-2-thienyl]-1-piperidyl]-2-oxo-acetamide]: the IC50 in assay [1] (setting [10]) and in assay [2] (setting [11]) was > 1 µM throughout. For the same compound, the MTAP intact/deleted ratio result in assay [2] is “B (an IC50 ratio greater than or equal to 3 fold but lower than 10 fold)”.
For the compound `Cc1cc(NC(=O)C(=O)N2C[C@H](C)CC[C@H]2c2ccc3c(c2)CCNC3=O)cnc1N` (single isomer, unassigned) [Compound 994], the IC50 in assay [4] was > 0.5 µM; in assay [3] (setting [13]) it was > 10 µM; in assay [5], > 0.5 µM; in assay [6], > 0.5 µM.
Regarding `Cc1cc(NC(=O)C(=O)N2C[C@@H](C)CC[C@@H]2[C@H]2CC[C@@H](O)CC2)cnc1N` (single isomer, unassigned) [Compound 423], the IC50 in assay [4] was > 0.5 µM; in assay [3] (setting [13]), > 10 µM; in assay [5], > 0.5 µM; in assay [6] it was > 0.5 µM.
`Cc1cc(NC(=O)C(=O)N2C[C@H](C)CC[C@H]2c2ccc(C(C)O)cc2)cnc1N` (mixture of isomers) [Compound 956, N-(6-amino-5-methyl-3-pyridyl)-2-[(2R,5S)-2-[4-(1-hydroxyethyl)phenyl]-5-methyl-1-piperidyl]-2-oxo-acetamide]: the IC50 is 0.05 to 0.5 µM in assay [4], 1 to 10 µM in assay [3] (setting [13]), 0.05 to 0.5 µM in assay [5] and 0.05 to 0.5 µM in assay [6].
Regarding `Cc1cc(NC(=O)C(=O)N2C[C@@H](C)CC[C@@H]2c2cccc3[nH]ccc23)cnc1N` (single isomer, unassigned) [Compound 1038], the IC50 in assay [4] was > 0.5 µM; in assay [3] (setting [13]), > 10 µM; in assay [5] it was > 0.5 µM; in assay [6], > 0.5 µM.
`C[C@H]1CC[C@H](c2ccc(NS(C)(=O)=O)nc2)N(C(=O)C(=O)Nc2cncc(C(N)=O)c2)C1` (single isomer, unassigned) [Compound 985]: the IC50 in assay [4] is > 0.5 µM; in assay [3] (setting [13]), > 10 µM; in assay [5], > 0.5 µM; in assay [6], > 0.5 µM.
